Test results reported in paper PMC7722752, “First-in-human Phase 1 open label study of the BET inhibitor ODM-207 in patients with selected solid tumours” (British Journal of Cancer, 2020).
Like-named read-outs stand apart in the source and are kept apart here.

How the values were obtained:
[1] = Phase 1 study: plasma pharmacokinetics and food effect; format: in vivo, human; details: for metabolite/parent ratio based in AUC(0-t): main metabolite = demethylation product
Description: All patients provided written informed consent.

platelet count = assay: Phase 1 study: platelet count as pharmacodynamic biomarker; details: in vivo
Description: Platelet count was chosen as a pharmacodynamic biomarker based on the observed robust correlation between BET inhibitor exposure and thrombocytopaenia in preclinical and clinical studies.[13],[14]

selected solid tumours = assay: Phase 1 study: anti-tumour activity (RECIST 1.1, PCWG3, Lugano); format: in vivo, human
Description: (§1) Response was assessed using RECIST 1.1 for patients with advanced solid tumours,[20] Prostate Cancer Working Group 3 criteria (PCWG3) for castrate-resistant prostate cancer[21] and Lugano criteria for non-Hodgkin lymphoma.[22]
Efficacy evaluation was performed on all patients who received two or more cycles of treatment (≥8 weeks).

[2] = system: patients with selected solid tumours
Description: The study design contained two parts: (1) dose escalation in patients with advanced solid tumours with an innovative single dose accelerated titration procedure in the first cohort (1A), (2) evaluation of food effect on bioavailability (1B). The single-dose accelerated titration procedure in the first cohort involved comparison of measured pharmacokinetic parameters in the first cohort of patients against preclinical models to evaluate whether exposure was within the target range. If the measured exposure was outside the target range (below or above), the protocol allowed for dose adjustment. Dose escalation was performed using a traditional 3 + 3 schedule. […] The relevant national authorities provided regulatory approval and local institutional review boards approved the protocol. All study procedures were conducted in accordance with the Declaration of Helsinki and good clinical practice. All patients provided written informed consent.
The starting dose was chosen as it was reasonably expected to be both pharmacologically active and safe and tolerable. The target exposure for the starting dose was estimated from exposures observed in pre-clinical anti-tumour activity and safety studies. The estimated human dose required was predicted by both human equivalent dose calculations and physiologically-based pharmacokinetic modelling. […] Treatment was taken in the ambulatory setting, except for hospital admissions required for pre-specified study-related procedures.
as §1
Safety analyses included all patients who received any doses of treatment. Efficacy evaluation was performed on all patients who received two or more cycles of treatment (≥8 weeks). Data points were excluded from relevant pharmacokinetic and platelet count analyses if samples were taken when the patient was on treatment interruption or within 3 days after resumption of treatment. […] Pre-dose total exposure of <3500 ng/mL was not expected to have significant BET inhibition effect and a level of ≥5000 ng/mL was expected to confer BET inhibition.

BET = system: BET; set-up: method as in earlier work; details: preclinical; cited from earlier work
[3] = system: breast cancer and leukaemia and prostate cancer xenograft models; set-up: method as in earlier work; details: preclinical; cited from earlier work
[4] = system: non-BET family bromodomains; details: preclinical; cited from earlier work
[5] = cohort 1A-1 0.6 mg/kg (50 mg) (n = 3)
[6] = cohort 1A-2 1.3 mg/kg (100 mg) (n = 7)

## COc1cc2c(cc1-c1c(C)noc1C)cc(C)c(=O)n2Cc1ccccn1 [ODM-207]
[1]; day 1
  metabolite/parent ratio based in AUC(0-t): 0.1–0.2
[1]; day 15
  metabolite/parent ratio based in AUC(0-t): 0.1–0.5
[1]; dose escalation 0.6–2.0 mg/kg
  exposure versus dose: dose proportional exposure
[1]; food effect cohort, single dose, light breakfast vs overnight fasting
  Plasma exposure (AUC0-24) under fed condition versus fasting condition: 1.5 fold
[1]; n = 28, 95% CI 2.9, 3.8
  increase of mean AUC(0-t) between day 1 and day 15 of dosing: 3.4 fold
[1]; oral
  absorption and elimination (plasma pharmacokinetics): slow absorption and elimination
Platelet count
  correlation between plasma exposure and changes in platelet count over time: strong correlation
  recovery of platelet count upon treatment interruption: Prompt recovery
Selected solid tumours; 21 evaluable patients
  non-CR/non-PD (non-measurable disease) as best response: 6 (29%) patients
  progressive disease (PD) as best response: 9 (43%) patients
  stable disease (SD) as best response: 29%
Selected solid tumours; 21 evaluable patients (≥ 8 weeks of treatment), RECIST
  partial or complete response (PR, CR): None had a partial or complete response
Selected solid tumours; NUT midline carcinoma, four patients
  patients with NMC with SD as best response: One out of four
Selected solid tumours; in vivo
  correlation between progression-free survival and increased exposure: no correlation
  median (range) duration of SD: 16.3 (8.0–23.0) weeks
  median progression-free survival: 2.2 months
  progression-free survival, range: 0.5–9.7 months
Selected solid tumours; of 35 treated patients
  Treatment discontinuation due to disease progression: 28 (80%) patients
Selected solid tumours; prostate cancer patients
  decline in PSA below baseline level: None of the prostate cancer patients showed decline in PSA below baseline level
[2]; GRADE 1, Total (n = 35)
  Related AE: Asthenia: 3 (8.6) n (%)
  Related AE: Decreased appetite: 12 (34) n (%)
  Related AE: Diarrhoea: 9 (26) n (%)
  Related AE: Dysgeusia: 4 (11) n (%)
  Related AE: Fatigue: 9 (26) n (%)
  Related AE: Headache: 7 (20) n (%)
  Related AE: Nausea: 13 (37) n (%)
  Related AE: Thrombocytopaenia: 15 (43) n (%)
  Related AE: Vomiting: 7 (20) n (%)
  Related AE: Weight loss: 4 (11) n (%)
[2]; GRADE 2, Total (n = 35)
  Related AE: Asthenia: 3 (8.6) n (%)
  Related AE: Decreased appetite: 8 (23) n (%)
  Related AE: Diarrhoea: 5 (14) n (%)
  Related AE: Dysgeusia: 3 (8.6) n (%)
  Related AE: Fatigue: 6 (17) n (%)
  Related AE: Headache: 3 (8.6) n (%)
  Related AE: Nausea: 4 (11) n (%)
  Related AE: Thrombocytopaenia: 8 (23) n (%)
  Related AE: Vomiting: 3 (8.6) n (%)
  Related AE: Weight loss: 1 (2.9) n (%)
[2]; GRADE 3, Total (n = 35)
  Related AE: Fatigue: 2 (5.7) n (%)
  Related AE: Nausea: 3 (8.6) n (%)
  Related AE: Thrombocytopaenia: 4 (11) n (%)
  Related AE: Weight loss: 1 (2.9) n (%)
[2]; GRADE 4, Total (n = 35)
  Related AE: Thrombocytopaenia: 1 (2.9) n (%)
[2]; Total (n = 35)
  AEs leading to dose reduction: 4 (11) n (%)
  AEs leading to dosing interruption: 19 (54) n (%)
  DLTs: 1 (2.9) n (%)
  Grade ≥ 3 AEs: 19 (54) n (%)
  Related SAEs: 3 (8.6) n (%)
  SAEs: 14 (40) n (%)
[2]; any grade, n = 35
  Common AE: nausea: 66%
[2]; [5]
  AEs leading to dosing interruption: 2 (67) n (%)
  AEs leading to study discontinuation: 1 (33) n (%)
[2]; [6]
  AEs leading to dosing interruption: 4 (57) n (%)
  DLTs: 1 (14) n (%)
  Grade ≥ 3 AEs: 3 (43) n (%)
[2]; cohort 1A-2 1.3 mg/kg (100 mg) (n = 7), oral once daily
  SAEs: 2 (29) n (%)
[2]; cohort 1A-3 1.5 mg/kg (n = 5)
  AEs leading to dosing interruption: 2 (40) n (%)
  AEs leading to study discontinuation: 2 (40) n (%)
  Grade ≥ 3 AEs: 2 (40) n (%)
  SAEs: 2 (40) n (%)
[2]; cohort 1A-4 2 mg/kg (n = 6)
  AEs leading to dose reduction: 2 (33) n (%)
  AEs leading to dosing interruption: 5 (83) n (%)
  AEs leading to study discontinuation: 1 (17) n (%)
  Grade ≥ 3 AEs: 4 (67) n (%)
  Related SAEs: 2 (33) n (%)
  SAEs: 3 (50) n (%)
[2]; cohort 1B-1 1.1 mg/kg (n = 10)
  AEs leading to dose reduction: 1 (10) n (%)
  AEs leading to dosing interruption: 4 (40) n (%)
  AEs leading to study discontinuation: 3 (30) n (%)
  Grade ≥ 3 AEs: 6 (60) n (%)
  SAEs: 3 (30) n (%)
[2]; cohort 1B-2 1.4 mg/kg (n = 4)
  AEs leading to dose reduction: 1 (25) n (%)
  AEs leading to dosing interruption: 2 (50) n (%)
  AEs leading to study discontinuation: 2 (50) n (%)
  Grade ≥ 3 AEs: 4 (100) n (%)
  Related SAEs: 1 (25) n (%)
  SAEs: 4 (100) n (%)
[2]; due to cumulative toxicity beyond the DLT treatment window
  highest studied dose achieved: 2 mg/kg
[2]; n = 35
  Common AE: anorexia: 49%
  Common AE: diarrhoea: 40%
  Common AE: fatigue: 43%
  Common AE: headache: 37%
  Common AE: vomiting: 40%
  Common AE: weight loss: 23%
  deaths on study: five deaths on study, all of which were considered not related to ODM-207
  treatment-related grade ≥3 adverse event: fatigue: 5.7%
  treatment-related grade ≥3 adverse event: nausea: 8.6%
  treatment-related grade ≥3 adverse event: thrombocytopaenia: 14.3%
[2]; of 35 treated patients
  Treatment discontinuation due to AEs: 5 (14%) patients
[2]; one patient, 100 mg (1.9 mg/kg), cohort 1A-2
  dose-limiting toxicity observed: intolerable grade 3 fatigue
[2]; oral once daily, 28-day cycle, based upon observed adverse events beyond the DLT period
  maximum tolerated dose (MTD): 2 mg/kg
[2]; overall, n = 35
  patients who experienced a treatment-related AE: 31 (89%) patients
BET
  BET inhibition potency: highly potent
[3]
  tumour growth inhibition: preclinical evidence of tumour growth inhibition
[4]
  cross-reactivity with non-BET family bromodomains: minimal cross-reactivity
